Here are results for twelve compounds from patent US8283366B2, “Derivatives of pyridoxine for inhibiting HIV integrase” (Ambrilia Biopharma, Inc., priority 2010, dated 2012).

pIC50: −log10 of the molar value. Where two headings read alike, the source gives them in different places.

For one assay, the system named is wild type NL-4.3. Put plainly: Multi-cycle infection assay in MT-4 cells, MTT cytoprotection readout. Format: cell-based, HIV-1. To be noted: read-out: EC50 (nM) multi-cycle. The method, then: The antiviral efficacies of the integrase inhibitor compounds of the invention were evaluated based on EC50 measures obtained from two different in vitro HIV infection assay using cultured MT-4 cells: (1) a multi-cycle infection where cells were infected with wild type NL-4.3) and (2) a single-cycle infection where the cells were infected with a luciferase-bearing, envelope defective (env-) NL-4.3 virus pseudotyped with HIV-1 env (HXBc2.
The incubation period for the multi-cycle infection assay was 6 days. Cell viability (cytoprotection) and EC50 were determined using the colorimetric MTT assay (A. J. Japour et al, Antimicrobial Agents and Chemotherapy, 37, 1095-1101, 1993 and R. Pauwels et al. Journal of Virological Methods, 20, 309-321, 1988).

The target in assay [1] is T1, recombinant HIV-1 integrase (Human immunodeficiency virus type 1 group M subtype B, UniProt P04585).
T1 construct: recombinant HIV-1 integrase
Put plainly: Integrase strand transfer assay. Format: biochemical. The settings on record: compounds added after assembly, 10% DMSO, read-out: ST IC50. The method, then: IC50 was determined for the compounds of the inventions based on data generated in strand transfer assays. The IC50 is a measure of the ability of the compounds tested to inhibit the integration of 3′-processed oligonucleotides by recombinant HIV-1 integrase.
Strand transfer assays were performed essentially as described in Hazuda, D. J.; Felock, P.; Hastings, J. C.; Pramanik, B.; Wolfe, A. J. Virol. 1997, 71, 7005-7011). Donor DNA (1.5 pmol/well), biotinylated on the 5′ end of the strand processed by integrase, was immobilized onto streptavidin-coated microtiter plates. Recombinant integrase (250 ng/well) was assembled onto the immobilized donor oligonucleotide in reaction buffer (20 mM Hepes, pH 7.6, 5 mM B-mercaptoethanol, 50 ug/mL bovine serum albumin) containing 30 mM MnCl2. Excess enzyme was removed, and the complexes were washed extensively prior to the addition of the target DNA substrate. The target DNA (0.75 pmoles/well) substrate was labeled on each 3′ end with FITC. After strand transfer, the FITC-labeled products were detected using an anti-FITC antibody conjugated with alkaline phosphatase (Roche) and a chemi-luminescent substrate (Tropix CSPD with Sapphire II enhancer, Applied Biosystems). The assay was performed in a final concentration of 10% DMSO. To specifically evaluate inhibition of strand transfer, compounds were added after assembly, just prior to the addition of the target DNA.
The results of the integrase strand transfer assay are reported as IC50 values. IC50 values were determined using a sigmoidal dose-response equation. The formula used for calculating % inhibition was: % Inhibition=[1−(sample counts/average of positive control)]*100.

In a further assay the test system is NL4.3 virus. Put plainly: Multi-cycle antiviral activity without and with human serum, p24 ELISA. To be noted: for Fold-change with HS: EC50 with 40% HS versus 10% FBS alone; for EC50: Human immunodeficiency virus 1, 144 h. (ELISA stands for enzyme-linked immunosorbent assay.)
Setting [2] is: Human immunodeficiency virus 1, MT4, 144 h, MT-4 cells, 6 days incubation, MTT.
Setting [3] is: read-out: EC50 (uM) 10% FBS + 40% HS.

Method for NL4.3 virus: The multi-cycle antiviral activity in the absence and presence of human serum was determined by p24 ELISA measurement after 6 days of NL4.3 virus infection.

What is called EC50 is the concentration that produces a half-maximal response. In general, pIC50 refers to −log10 of the IC50, conventionally taken in molar units. For the compound `O=C(NO)c1ncc([C@H](O)c2ccc(F)c(Cl)c2)c(CO)c1O` [Example 1, (R)-5-((3-Chloro-4-fluorophenyl)(hydroxy)methyl)-N,3-dihydroxy-4-(hydroxymethyl)picolinamide], the EC50 with wild type NL-4.3 (setting [2]) amounted to 4 nM; in the assay with NL4.3 virus (read-out: EC50 (uM) 10% FBS), 0.006 µM; in the assay with NL4.3 virus (setting [3]) it was 0.006 µM. In assay [1], the pIC50 is 7.25. Moreover, in the assay with NL4.3 virus, the “Fold-change with HS” value came to 1.

For `O=C(NO)c1ncc(Cc2ccc(F)cc2)c(CO)c1O` [Example 2, 5-(4-fluorobenzyl)-N,3-dihydroxy-4-(hydroxymethyl)picolinamide], the EC50 with wild type NL-4.3 (setting [2]) is 10 nM. Further, the pIC50 in assay [1] is 7.46.

For the compound `O=C(NO)c1ncc(C(O)c2ccc(F)cc2)c(CO)c1O` (stereo not drawn) [Example 3, 5-((4-fluorophenyl)(hydroxy)methyl)-N,3-dihydroxy-4-(hydroxymethyl)picolinamide], the EC50 in the assay with wild type NL-4.3 (setting [2]) amounted to 2 nM.

Regarding `CN(O)C(=O)c1ncc(C(O)c2ccc(F)cc2)c(CO)c1O` (stereo not drawn) [Example 5, 5-((4-fluorophenyl)(hydroxy)methyl)-N,3-dihydroxy-4-(hydroxymethyl)-N-methylpicolinamide], in the assay with wild type NL-4.3 (setting [2]), the EC50 came out at 421 nM.

In the case of `CONC(=O)c1ncc(C(O)c2ccc(F)cc2)c(CO)c1O` (stereo not drawn) [Example 6, 5-((4-fluorophenyl)(hydroxy)methyl)-3-hydroxy-4-(hydroxymethyl)-N-methoxypicolinamide], in the assay with wild type NL-4.3 (setting [2]), the EC50 was determined as 74 nM.

In the case of `Cc1c(Cc2ccc(F)cc2)cnc(C(=O)NO)c1O` [Example 7, 5-(4-fluorobenzyl)-N,3-dihydroxy-4-methylpicolinamide], the EC50 in the assay with wild type NL-4.3 (setting [2]) was 21 nM.

As to `Cc1c(C(O)c2ccc(F)cc2)cnc(C(=O)NO)c1O` (stereo not drawn) [Example 8, 5-((4-fluorophenyl)(hydroxy)methyl)-N,3-dihydroxy-4-methylpicolinamide], the EC50 in the assay with wild type NL-4.3 (setting [2]) was found to be 8 nM.

Regarding `Cc1c(C(=O)c2ccc(F)cc2)cnc(C(=O)NO)c1O` [Example 9, 5-(4-fluorobenzoyl)-N,3-dihydroxy-4-methylpicolinamide], in the assay with wild type NL-4.3 (setting [2]), the EC50 was 6680 nM.

Regarding `Cc1c(/C(=N/O)c2ccc(F)cc2)cnc(C(=O)NO)c1O` [Example 10, (E)-5-((4-fluorophenyl)(hydroxyimino)methyl)-N,3-dihydroxy-4-methylpicolinamide], in the assay with wild type NL-4.3 (setting [2]), the EC50 came to 49 nM.

On to `O=C(NO)c1ncc([C@@H](O)c2ccc(F)c(Cl)c2)c(CO)c1O` [Example 11, (S)-5-((3-Chloro-4-fluorophenyl)(hydroxy)methyl)-N,3-dihydroxy-4-(hydroxymethyl)picolinamide], for which the EC50 in the assay with wild type NL-4.3 (setting [2]) was determined as 2 nM; in the assay with NL4.3 virus (read-out: EC50 (uM) 10% FBS), 0.001 µM; with NL4.3 virus (setting [3]), 0.001 µM. Moreover, in assay [1], the pIC50 is 7.64. Besides, in the assay with NL4.3 virus, the “Fold-change with HS” value was 1.

With `O=C(O)C(O)=CC(=O)c1cc(OCc2ccccc2)cc(OCc2ccccc2)c1` [Example L-708906, reference compound], the EC50 with wild type NL-4.3 (MT-4 cells, 6 days incubation, MTT) turned out to be 5800 nM. Besides, the pIC50 in assay [1] is 7.35.

As to `Cc1nnc(C(=O)NC(C)(C)c2nc(C(=O)NCc3ccc(F)cc3)c(O)c(=O)n2C)o1` [Raltegravir, reference compound], the EC50 came to 20 nM in the assay on wild type NL-4.3 (Human immunodeficiency virus 1, MT4, 144 h); 0.047 µM in the assay on NL4.3 virus (read-out: EC50 (uM) 10% FBS); 0.064 µM in the assay with NL4.3 virus (setting [3]).
